Measurements as given in patent US10213449B2, “Compositions and methods for treating medulloblastoma” (The Board of Trustees of the Leland Stanford Junior …, priority 2016, dated 2019).
“Also recorded” adds a separate entry of the source.

Experiments:
[1] = test system: Hh signaling in NIH 3T3 cells exposed to Shh; test: RT-qPCR of Hh target transcripts in Shh-stimulated NIH 3T3 cells; format: cell-based, mouse; conditions: SHH ligand-induced NIH 3T3 cells; as early as 4 h post exposure
Description: (§1) NIH3T3s or SUFU−/− MEFs were plated in 6 well plates at 400,000 cells/well in 10% FBS media constituted of DMEM (Invitrogen11960-069) supplemented with 10% FBS (Hyclone Labs SH30070.02), pen/strep (Life Technologies 15140-122), sodium pyruvate (Invitrogen 11360-070) and glutamax (Invitrogen 35050-061). Cells were then starved in 0.5% FBS for 24 h prior to treatment with 25% ShhN conditioned media in 0.5% FBS+/− drug treatment. GliΔN were treated 48 h post transfection. Unless otherwise stated, all treatments were performed for 6 h. Cell lysis and RNA extraction was performed using Qiashredder homogenizers (Qiagen 79654) and RNEasy mini kits (qiagen 74104) as per manufacturer's instructions. RNA was quantified on a nanodrop spectrophotometer (nanoddrop technologies ND-2000C). Transcript quantification was performed using a TaqMan RNA-to-Ct 1-Step Kit (Life technologies, 4392656) and the Applied Biosystems 7500 RT-PCR system as per the manufacturer's instructions. All primers were commercially available TaqMan® Gene Expression Assay probes purchased from Life Technologies (csnk2a1: Mm00786779_s1, csnk2a2: Mm01243455_m1, csnk2b: Mm00487216_m1, Gli1: Mm00494654_m1, Gli2: Mm.273292, Ccnd1: Mm.273049, Ptch: Mm00436047_m1).

[2] = test system: MB cell lines (MB55, MB21, MB53); test: Cell viability of MB cell lines (CellTiter-Glo); format: cell-based, mouse; conditions: multiple MB cell lines derived from Ptch1+/− and Ptch1+/−; Trp53−/− mice
Description: Ptch+/−MB cell lines MB55 and MB21 were kindly gifted from Dr. Rosalind Segal (Dana Farber Cancer Institute, Harvard Medical School) and Ptch^+/−; p53^−/− MB53 cells were kindly gifted from Charles Rudin (Memorial Sloan-Kettering Cancer Center). All cell lines were validated for high Gli activity. Cell viability was assessed using CellTiter-Glo (G7573, Promega, WI, USA) according to the manufacturers instructions. Cells were plated at 10000 cells/well in 96-well plates, treated with drugs as indicated and data was collected on a TECAN Infinite 200 plate reader.

[3] = test system: Medulloblastoma cell lines (MB53, MB55 and MB21 cells); test: Acquired resistance in medulloblastoma cell lines; format: cell-based, mouse; conditions: CX-4945 10 uM
Description: Medulloblastoma cell lines (MB53, MB55 and MB21 cells) were cultured in Neurobasal (Life Technologies 10888-022)+B27 supplement (Invitrogen 17504044)+DMSO (0.1%), CX-4945 (10 uM) or TBB (50 uM). […] Primer sequences are provided in supplemental table 5.

[4] = test system: Ptch+/−; Trp53−/−; SmoD477G MB intracranial allografts; test: Intracranial allograft survival study; format: in vivo, mouse; conditions: CX-4945 75 mg/kg PO BID vs vehicle control
Description: Ptch+/−; Tpr53−/−; SmoD477G were suspended in sterile PBS to an adjusted final volume of at 80,000 cells/2 uL injection. Mice were anesthetized and fixed to a stereotactic frame and the head was sterilized. A small sagittal incision was made in the mouse's scalp to expose the area surrounding lambda. The skull was sterilized a 0.7 mm drill bit was used to create a midline hole located 2 mm down from lambda. A Hamilton syringe with affixed 26 g needle was lowered to a depth of ˜3 mm then withdraw to 2.75 mm before injecting 2 uL (80,000) cells at 0.5 ul/min. The drill hole was closed with a thin slip of bone wax and the wound was closed. […] Corn oil was used as vehicle for both CX-4945 and DMSO. Weight, morbidity and survival were measured by a blinded collaborator. Kaplan-meyer survival curves were generated using GraphPad Prism and significance was measured by Logrank Mantel-Cox test.

[5] = test system: Hh signaling in Sufu−/− mouse embryonic fibroblasts; test: RT-qPCR of Gli1 in Sufu−/− MEFs (epistasis study); format: cell-based
From the text: (§2) Epistasis studies were next performed to determine where in the hedgehog pathway CK2 acts. The effect of TBB was examined: (i) in NIH 3T3s stimulated with SAG, a SMO agonist, (ii) in Sufu−/− mouse embryonic fibroblasts (MEF), and (iii) in NIH 3T3 cells overexpressing GLI2 (FIG. 3d-3f).
Sufu^−/− MEFs (conditional deletion of exons 4-8) were kindly provided by Pao-Tien Chang (UCSF). SAG (S7779), GDC-0449 (Vismodegib, S1082) and CX-4945 (Silmitasertib, S2248) was purchased from SelleckChem.com. TBB was purchased from EMD (218697). Shh-N conditional medium was made using a HEK 293 cell line that stably secretes ShhN as previously described. Myc-GL12-DN (17649, pCS2-MT-GLI2-deltaN) plasmid was purchased from Addgene (Cambridge, Mass., USA). […]
NIH3T3s or SUFU−/− MEFs were plated in 6 well plates at 400,000 cells/well in 10% FBS media constituted of DMEM (Invitrogen11960-069) supplemented with 10% FBS (Hyclone Labs SH30070.02), pen/strep (Life Technologies 15140-122), sodium pyruvate (Invitrogen 11360-070) and glutamax (Invitrogen 35050-061). […] RNA was quantified on a nanodrop spectrophotometer (nanoddrop technologies ND-2000C). Transcript quantification was performed using a TaqMan RNA-to-Ct 1-Step Kit (Life technologies, 4392656) and the Applied Biosystems 7500 RT-PCR system as per the manufacturer's instructions. […]

[6] = test system: Ptch+/−; Tpr53−/−; SmoD477G MB flank allografts; test: Flank allograft study, SMO inhibitor-resistant MB; format: in vivo, mouse; conditions: TBB 30 mg/kg IP BID or GDC-0449 37.5 mg/kg IP BID vs vehicle control
Description: In vivo efficacy studies were performed in accordance with protocols approved by the Institutional Animal Care and Use Committee at Stanford University. SmoWT-MB and Smo[…]-MB cells isolated from either parental SmoWT or Smo[…] mouse Ptch^+/-; p53^-/- MB hind-flank allografts were kindly provided by Charles Rudin (Memorial Sloan-Kettering Cancer Center). Ptch+/-; Tpr53-/-, or, Ptch+/-; Tpr53-/-; Smo[…] MB cells were mixed 1:1 with matrigel and 10^7 cells were injected into both flanks of a Nu/Nu mouse. Once tumors reached 225-275 mm^3, mice were randomized to treatment vs. control groups. Treatment groups received 30 mg/kg IP BID of TBB (reconstituted in DMSO at 50 ug/uL), or 37.5 mg/kg IP BID of GDC-0449 (reconstituted in DMSO at 62.5 ug/uL). Control mice were treated with an equivalent volume of DMSO. Corn oil was used in all groups to a total volume of 180 uL/injection and all doses were given with a 28 g insulin syringe. Tumors were measured and mice were weighed daily. Once tumors reached 1.5 cm^2 or met institutional euthanasia criteria, mice were sacrificed and tumors were harvested. Growth curves were generated using GraphPad Prism and significance was measured by two-way ANOVA.

[7] = test system: Hh signaling in NIH 3T3s stimulated with SAG; test: RT-qPCR of Gli1 in NIH 3T3s stimulated with SAG (epistasis study); format: cell-based, mouse; conditions: NIH 3T3s, SAG treated groups
Description: as §2
as §1, with “All primers were commercially available TaqMan® Gene Expression Assay probes purchased from Life Technologies (csnk2a1: Mm00786779_s1, csnk2a2: Mm01243455_m1, csnk2b: Mm00487216_m1, Gli1: Mm00494654_m1, Gli2: Mm.273292, Ccnd1: Mm.273049, Ptch: Mm00436047_m1).” left out

Compound: O=C(O)c1ccc2c(c1)nc(Nc1cccc(Cl)c1)c1ccncc12 [CX-4945, 5-(3-Chloroanilino)benzo[c][2,6]naphthyridine-8-carboxylic acid]
- Gli1 mRNA levels [1]: inhibited; also recorded: loss of Gli1 induction
- cell viability [2]: decreased; also recorded: dose dependent tumoricidal effects
- surviving cells after 2 weeks of culture with drug [3]: only control treated (DMSO) and MB55 TBB treated (50 uM) cells remained
- survival (Kaplan-Meier) of mice harboring intracranial allografts [4]: significant increase in survival

Compound: CS(=O)(=O)c1ccc(C(=O)Nc2ccc(Cl)c(-c3ccccn3)c2)c(Cl)c1 [GDC-0449, 2-chloro-N-(4-chloro-3-pyridin-2-ylphenyl)-4-methylsulfonylbenzamide]
- Gli1 mRNA levels [1]: loss of Gli1 induction
- Gli1 mRNA / Gli transcript levels [5]: no significant change
- tumor growth of SmoD477G MB flank allografts [6]: resistant

Compound: CNC1CCC(N(Cc2cccc(-c3ccncc3)c2)C(=O)c2sc3ccccc3c2Cl)CC1 (centres unmarked) [SAG]
- Gli1 mRNA levels (effect of SMO agonist) [7]: Increased
